{"source": "patent US20050226908A1", "about": "“Efficacious composition of a benzimidazole, an avermectin and praziquantel and related methods of use” (Akzo Nobel N.V., priority 2004, published 2005)", "origin": "cited, not measured here", "system": "parasites", "details": "fenbendazole alone, one time treatment at 100 or 150 mg/kg; JAVMA 180, 1:53 (1982) and Am J Vet Res 39, 11:1799 (1978)"}
{"smiles": "COC(=O)Nc1nc2ccc(Sc3ccccc3)cc2[nH]1", "note": "[fenbendazole]", "values": [{"measurement": "Efficacy of one time treatment", "value": "not efficacious"}]}
